Laboratory results taken from patent EP2153845A1, “Endoglin peptides, vaccines and methods for preparing the same” (Julius-Maximilians-Universität Würzburg, priority 2008, dated 2010).

Tests used:
[1] = system: peripheral blood lymphocytes of melanoma patients; assay: human IFN-γ ELISPOT after in vitro peptide stimulation of PBL; format: cell-based; conditions: for specific responses in peripheral blood of melanoma patients in comparison to control experiments and parental peptides: IFN-γ ELISPOT, modified versus parental peptides, Fig. 5; for specific immune responses / T cell activity in vitro (IFN-γ ELISPOT): PBL of melanoma patients prestimulated in vitro with 10 µM peptide, Figs. 4 and 5
Description: To extend the sensitivity of the ELISPOT assay, PBL were stimulated once in vitro before analysis (McCutcheon et al., 1997). At day 0, PBL were thawed or freshly isolated from peripheral blood and plated in a cell concentration of 1x10^6/ml and 5 ml/well in 6-well plates (Greiner GmbH, Frickenhausen, Germany) in X-vivo medium (Cambrex Biosciences, Verviers, Belgium) with 10% heat inactivated human AB serum in the presence of 10 µM peptide (GeneScript Corporation, Piscataway, New Jersey, USA). On day 1 and 4 40 U IL-2/ml (Proleukin, Chiron GmbH, Munich, Gemany) were added to the culture. The cultured cells were tested for reactivity in ELISPOT on day 7.
The human IFN-γ ELISPOT assay was used to quantify peptide epitope-specific IFN-γ-releasing effector cells as described in Berke et al. 2000. Nitrocellulose-bottomed 96-well plates (MultiScreen MAIP N45, Millipore GmbH, Schwalbach, Germany) were activated with 35% ethanol, washed with PBS and coated with anti-IFN-γ antibody (1-D1 K, Mabtech, Hamburg, Germany). The wells were washed and blocked by X-vivo medium before adding 1x10^4 stimulator T2 cells loaded with or without 10 µM peptide and 3x10^5, 1x10^5 or 3x10^4 effector cells. After incubation overnight the wells were washed before addition of biotinylated secondary antibody (7-B6-1-Biotin, Mabtech, Hamburg, Germany). The plates were incubated for 2 h, washed, and streptavidine-enzyme conjugate (Streptavidin-ALP-PQ, Mabtech, Hamburg, Germany) was added. Incubation at room temperature for 1 h was followed by addition of enzyme substrate NBT/BCIP (Mabtech, Hamburg, Germany). The reaction was stopped by washing with tap water upon the appearance of dark purple spots. Spots were counted using the ImmunoSpot Series 2.0 Analyzer (CTL Cellular Technology Ltd., Schwäbisch Gmünd, Germany). The peptide-specific CTL frequency was calculated from the numbers of spot-forming cells. All assays were performed in duplicates. Responders were defined as having an average number of > 25 antigen-specific spots per 10^5 Cells (Spots with peptide - Spots without peptide).

[2] = system: HLA-A2/k^b transgenic mice; assay: immunization of mice and analysis of immune responses by murine IFN-γ ELISPOT; format: in vivo; conditions: Fig. 6; for T cell IFN-γ responses after immunization of mice: HLA-A2/k^b transgenic mice vaccinated with peptides and incomplete Freund's adjuvant, spleen cells in ELISPOT; for immune responses in the mouse model in comparison to control experiments and parental epitopes: HLA-A2/k^b transgenic mice, modified versus parental peptides
Description: HLA-A2/k^b transgenic mice (deposited by Linda A. Sherman at MMRCC, University of North Carolina, Chapel Hill, USA) were immunized with a mixture of 5-6 CD105 peptides (5 µg/peptide) and incomplete Freund's adjuvant 7 times once weekly. Spleen cells were analyzed in a murine IFN-γ ELISPOT after in vitro stimulation. Cells were stimulated for six days with 200 U IL-2/ml and 10 µM peptide loaded, mitomycin C treated LPS blasts, generated by stimulation of HLA-A2k^b spleen cells with 25 µg/ml LPS (Sigma-Aldrich, Taufkirchen, Germany) and 7 µg/ml dextran sulfate for three days. Subsequently 3x10^5, 1x10^5, and 0.3x10^5 spleen cells were seeded with or without 10 µM peptide in RPMI 1640/10% FCS in duplicates in nitrocellulose-bottomed 96-well plates (MultiScreen MAIP N45, Millipore GmbH) coated with an IFN-γ specific coating antibody (Mabtech) and blocked with cell culture medium and incubated overnight. The development of the murine IFN-γ ELISPOT was done as described for the human ELISPOT, with the exception that PBS/0.05% Tween 20 was used as washing buffer and the biotinylated anti-mouse IFN-γ antibody (Mabtech, diluted in PBS/1% BSA) as detection antibody. Table 1: Sequence listing

[3] = biological target: T1, human leukocyte antigen A2 (HLA-A2) on the acid-stripped HLA-A2 positive cell line JY (human); assay: competitive binding assay on acid-stripped JY cells, flow cytometry
T1 construct: whole, on cells; Empty, acid-stripped HLA-A2 on JY cells; also called HLA-A*0201

[4] = biological target: T1, human leukocyte antigen A2 (HLA-A2) on …; assay: competitive binding assay vs fluorescein-labeled reference peptide on acid-stripped HLA-A2 positive JY cells, flow cytometry

Molecule: SEQ ID NO: 12 (SLVASFVEV)
- specific responses in peripheral blood of melanoma patients in comparison to control experiments and parental peptides [1]: multiplied
- specific immune responses / T cell activity in vitro (IFN-γ ELISPOT) [1]: induce T cell activity in vitro very efficiently
- T cell IFN-γ responses after immunization of mice [2]: high T cell IFN-γ responses
- immune responses in the mouse model in comparison to control experiments and parental epitopes [2]: enhanced immune responses

Molecule: SEQ ID NO: 3 (LILQGPPYV)
- specific immune responses / T cell activity in vitro (IFN-γ ELISPOT) [1]: induce T cell activity in vitro very efficiently
- T cell IFN-γ responses after immunization of mice [2]: high T cell IFN-γ responses

Molecule: SEQ ID NO: 1 (ALLLASCSL)
- specific immune responses / T cell activity in vitro (IFN-γ ELISPOT) [1]: induce T cell activity in vitro very efficiently

Molecule: SEQ ID NO: 10 (LLTAALWYI)
- specific immune responses / T cell activity in vitro (IFN-γ ELISPOT) [1]: induce T cell activity in vitro very efficiently
- T cell IFN-γ responses after immunization of mice [2]: high T cell IFN-γ responses

Molecule: SEQ ID NO: 15 (FLIGALLTV)
- specific responses in peripheral blood of melanoma patients in comparison to control experiments and parental peptides [1]: multiplied
- specific immune responses / T cell activity in vitro (IFN-γ ELISPOT) [1]: induce T cell activity in vitro very efficiently
- T cell IFN-γ responses after immunization of mice [2]: high T cell IFN-γ responses
- immune responses in the mouse model in comparison to control experiments and parental epitopes [2]: enhanced immune responses

Molecule: SEQ ID NO: 16 (LLTAALWYV)
- specific responses in peripheral blood of melanoma patients in comparison to control experiments and parental peptides [1]: multiplied
- specific immune responses / T cell activity in vitro (IFN-γ ELISPOT) [1]: induce T cell activity in vitro very efficiently
- T cell IFN-γ responses after immunization of mice [2]: high T cell IFN-γ responses
- immune responses in the mouse model in comparison to control experiments and parental epitopes [2]: enhanced immune responses

Molecule: SEQ ID NO: 7 (SVSEFLLQL)
- specific immune responses / T cell activity in vitro (IFN-γ ELISPOT) [1]: induce T cell activity in vitro very efficiently
- T cell IFN-γ responses after immunization of mice [2]: high T cell IFN-γ responses

Molecule: SEQ ID NO: 8 (LLHFYTVPI)
- specific immune responses / T cell activity in vitro (IFN-γ ELISPOT) [1]: induce T cell activity in vitro very efficiently
- T cell IFN-γ responses after immunization of mice [2]: high T cell IFN-γ responses

B1: hCD105 419-427 (peptide)
peptide: SMISNEAVV
notes: Synthetic nonamer selected from human CD105 (endoglin); also called parental peptide
- binding result [3]: binds

B2: hCD105 11-19 (peptide)
peptide: ALLLASCSL
notes: as for B1
- binding result [3]: binds

B3: hCD105 482-490 (483L, 490V) (peptide)
peptide: SLSEFLLQV
notes: also called AA 483: leucine AA 490: valine
- IC50 [4]: ≤ 3.5 µM

B4: hCD105 251-259 (252L) (peptide)
peptide: LLLQGPPYV
notes: also called AA 252: leucine
- IC50 [4]: ≤ 3.5 µM

B5: hCD105 251-259 (peptide)
peptide: LILQGPPYV
notes: as for B1
- binding result [3]: binds

B6: hCD105 482-490 (peptide)
peptide: SVSEFLLQL
notes: as for B1
- binding result [3]: binds

B7: hCD105 309-317 (peptide)
peptide: SIVASFVEL
notes: as for B1
- binding result [3]: binds

B8: hCD105 298-306 (peptide)
peptide: GLLGEARML
notes: as for B1
- binding result [3]: binds

B9: hCD105 600-608 (608V) (peptide)
peptide: FLIGALLTV
notes: also called AA 608: valine
- IC50 [4]: ≤ 3.5 µM

B10: hCD105 600-608 (peptide)
peptide: FLIGALLTA
notes: as for B1
- binding result [3]: binds

B11: hCD105 533-541 (541V) (peptide)
peptide: LLHFYTVPV
notes: also called AA541: valine
- IC50 [4]: ≤ 3.5 µM

B12: hCD105 533-541 (peptide)
peptide: LLHFYTVPI
notes: as for B1
- binding result [3]: binds

B13: hCD105 605-613 (613V) (peptide)
peptide: LLTAALWYV
notes: also called AA 613: valine
- IC50 [4]: ≤ 3.5 µM

B14: hCD105 605-613 (peptide)
peptide: LLTAALWYI
notes: as for B1
- binding result [3]: binds

B15: hCD105 61-69 (peptide)
peptide: ILEVHVLFL
notes: as for B1
- binding result [3]: binds

B16: hCD105 309-317 (310L, 317V) (peptide)
peptide: SLVASFVEV
notes: also called AA 310: leucine AA 317: valine
- IC50 [4]: ≤ 3.5 µM
